# Experimental data from patent US20220024992A1, “COMPOSITIONS AND METHODS COMPRISING LYSOCINS AS BIOENGINEERED ANTIMICROBIALS FOR USE IN TARGETING GRAM-NEGATIVE BACTERIA” (The Rockefeller University, priority 2018, published 2022).
# “And” between values parts separate entries of the source, which are not always exact repeats. Identical values can stand only once.
# Legend:
# P. aeruginosa strains = assay: MIC and MBC, modified CLSI broth microdilution, CAA medium; assay type: cell-based
# Procedure: (§1) The MIC and MBC values were calculated using a modified version of the broth microdilution assay as previously described by the Clinical and Laboratory Standards Institute (CLSI) (45). The specific modifications were to the bacterial concentration and growth medium used. […] CAA medium was used for Gram-negative bacteria to simulate low iron conditions. Alternatively, MHB was used for Gram-positive bacteria due to their inability to grow in CAA medium. Bacterial growth was assessed by measuring the OD600 nm using a SpectraMax M5 microplate reader (Molecular Devices). The MIC was defined as the lowest antimicrobial concentration that inhibits bacterial growth. To determine the MBC, the contents from each well originating from the MIC microtiter plate was plated on CAA agar to quantitate bacterial viability. The MBC was defined as the lowest antimicrobial concentration required to kill ≥99.9% of the initial bacterial inoculum. Growth and sterility controls were included.
# P. aeruginosa strain 453 [1] = assay: Lysocin thermal stability (residual antipseudomonal activity after heating); assay type: physicochemical; settings: 30 min incubation in PBS, then 50 μg/ml for 4 h at 37° C.
# Procedure: FIG. 7. Lysocin thermal stability. PyS2-GN4 was incubated in phosphate buffered saline (PBS) for 30 min at temperatures ranging from 4° C. to 80° C. After cooling on ice, each sample at 50 μg/ml was incubated statically with P. aeruginosa strain 453 for a total of 4 h at 37° C. The average residual antipseudomonal activity of each sample was equated to the log10 decrease in viable bacterial cells when compared to the untreated control. All error bars correspond to ±SEM of triplicate experiments.
# P. aeruginosa strain 453 [2] = assay: Plate lysis assay using viable Pseudomonas; assay type: cell-based
# Procedure: For determining muralytic activity, 25 pmol of each purified protein sample was spotted on 0.75% (wt/vol) agarose embedded with autoclaved P. aeruginosa in 50 mM Tris-HCl, pH 7.5. […] For elucidating antipseudomonal activity towards viable bacteria, 0.01-400 pmol of each purified protein sample was spotted on 0.75% (wt/vol) agarose comprising P. aeruginonsa strain 453 at an initial concentration of 5×10^6 CFU/ml in either CAA medium or CAA:HuS (1:1; HuS from pooled human male AB plasma, Sigma-Aldrich). Growth inhibition zones observed after 24 h incubation at 37° C. correspond to antipseudomonal activity. Buffer was spotted as a negative control.
# [3] = system: pseudomonal PG (autoclaved P. aeruginosa); assay: Muralytic plate lysis assay on autoclaved Pseudomonas; assay type: biochemical; settings: 25 pmol spotted
# E. coli ATCC 25922 = assay: MIC, modified broth microdilution, CAA medium; assay type: cell-based
# Procedure: as §1
# E. cloacae NR-50391 = assay: MIC, modified broth microdilution, CAA medium; assay type: cell-based
# Procedure: as §1
# A. baumaneii ATCC 17978 = assay: MIC, modified broth microdilution, CAA medium; assay type: cell-based
# Procedure: as §1
# K. pneumoniae NR-41916 = assay: MIC, modified broth microdilution, CAA medium; assay type: cell-based
# Procedure: as §1
# P. aeruginosa strain 453 [4] = assay: Endotoxin release (chromogenic LAL assay); assay type: cell-based; settings: after 4 h treatment, 0.2× and 5×MIC
# Procedure: Endotoxin Release P. aeruginosa strain 453 at 10^6 CFU/ml was treated with 0.2× and 5×MIC PyS2-GN4, colistin, meropenem or tobramycin in CAA medium for either 1 or 4 h at 37° C. The samples were subsequently centrifuged at 2,000×g for 10 min. The supernatant was collected and passed through a 0.2 μm syringe filter. Endotoxin concentration in the filtered supernatant was quantitated using the ToxinSensor Chromogenic LAL Endotoxin Assay Kit (GenScript). All data was depicted as the mean±SEM of duplicate experiments.
# P. aeruginosa strain 453 [5] = assay: Dose-response cell viability assay (killing kinetics); assay type: cell-based; settings: for reduction in bacterial viability: 0.1-100 μg/ml, CAA medium with EDDHA
# Procedure: For the 12 h experiments, 0.01-100 μg/ml of PyS2-GN4 was incubated statically at 37° C. with P. aeruginosa strain 453 at 10^6 CFU/ml in CAA medium with 0.5 mg/ml EDDHA (Complete Green Company). At 2 h increments, an aliquot was removed from each sample, serial diluted and plated on CAA agar to determine viable bacterial counts. For the 24 h experiments, lysocin at 0.1-100 μg/ml was incubated statically at 37° C. with P. aeruginosa strain 453 at 10^6 CFU/ml in either CAA medium or CAA:HuS (1:1) with EDDHA. After 24 h, the samples were serial diluted and plated on CAA agar to assess bacterial viability. An untreated control was used for each data set. All samples were investigated in duplicate.
# P. aeruginosa strain 453 [6] = assay: Transmission electron microscopy of lysocin-treated bacteria; assay type: cell-based; settings: 50 μg/ml
# Procedure: At 0, 30 and 60 min, an aliquot was removed and fixed with 100 mM sodium cacodylate, pH 7.4, containing 4% (vol/vol) paraformaldehyde and 2% (vol/vol) glutaraldehyde. TEM images were obtained by The Rockefeller University Electron Microscopy Resource Center.
# P. aeruginosa strain 453 [7] = assay: Murine model of bacteremia; assay type: in vivo, mice; settings: for protected from death (survival over 10 days): 3 h post-infection
# Procedure: A murine model of bacteremia using P. aeruginosa was adapted from previous studies (46-50). Briefly, male 6-week-old C57BL/6 mice (Charles River Laboratories) were IP infected with 10^8 P. aeruginosa strain 453 and then IP treated 3 h post-infection with a single dosage of either PBS or PyS2-GN4 at 2.5-25 mg/kg. Survival was monitored for 10 days. The collective results were obtained from four independent experiments and analyzed by Kaplan-Meier survival curves using GraphPad Prism. The Rockefeller University Institutional Animal Care and Use Committee approved all mouse experiments (protocol 17025).
# E. faecium EFSK-2 = assay: MIC, modified broth microdilution, MHB; assay type: cell-based
# Procedure: as §1
# S. pyogenes D471 = assay: MIC, modified broth microdilution, MHB; assay type: cell-based
# Procedure: as §1
# B. cereus RSVF1 = assay: MIC, modified broth microdilution, MHB; assay type: cell-based
# Procedure: as §1
# S. aureus NR-45946 = assay: MIC, modified broth microdilution, MHB; assay type: cell-based
# Procedure: as §1
# P. aeruginosa strain 453 [8] = assay: Cell viability assays with 0.5 μM antimicrobial; settings: iron-chelated CAA medium
# Procedure: P. aeruginosa strain 453 were grown under iron-depleted conditions (see Bacterial Strains and Growth Conditions). The bacteria were harvested, washed and resuspended in fresh CAA medium with 0.5 mg/ml EDDHA. Using a 96-well flat-bottomed microtiter plate, the bacteria at ˜10^6 CFU/ml were incubated statically at 37° C. with either growth medium only (untreated control) or 0.5 μM purified antimicrobial. A 2 h incubation was used for the single time point experiments, whereas a 4 or 6 h incubation was used for the multiple time point assays. At various time points, an aliquot was removed from each sample, serially diluted and plated on CAA agar. After incubating the agar plates for up to 48 h at 37° C., colonies were counted in order to quantitate the CFU/ml concentration of surviving bacterial cells. Modifications were introduced to the aforementioned cell viability assay protocol for the experiment using P. aeruginosa grown in the presence of varying free iron concentrations. First, P. aeruginosa strain 453 were grown using iron-depleted or iron-rich conditions (CAA medium supplemented with 100 μM FeSO4) at 37° C. with aeration for a total of 16-18 h and subsequently assayed for lysocin sensitivity in PBS, pH 7.4. For the experiment analyzing lysocin activity in the presence of lung surfactant or serum, P. aeruginosa were incubated with or without lysocin in beractant ([sequence]; Abbvie) or HuS diluted 1:1 with 20 mM sodium phosphate, pH 7.0.
substance,measurement,setting,value
"PyS2-GN4: lysocin: PyS2 domains I-III, with domain IV (aa 559-689) deleted and replaced by the GN4 lysin (aa 1-144); 76 kDa",MIC,"P. aeruginosa strains; strain 452, FpvA type I",4 µg/mL
same,MBC,"P. aeruginosa strains; strain 453, FpvA type I",0.25 µg/mL
same,MIC,"P. aeruginosa strains; strain 453, FpvA type I",0.25 µg/mL
same,MIC,"P. aeruginosa strains; strain MDR-M-3, FpvA type I",2 µg/mL
same,MIC,"P. aeruginosa strains; strain PAO1, FpvA type I",2 µg/mL
same,MIC values,"P. aeruginosa strains; towards strain PAO1 and the 452, 453 and MDR-M-3 clinical isolates",≤ 4 µg/mL
same,temperature at which bactericidal activity was fully retained,P. aeruginosa strain 453 [1],45 °C
same,amount spotted at which activity could be observed,P. aeruginosa strain 453 [2]; 50% HuS,0.13 pmol
same,amount spotted at which antipseudomonal activity was displayed,P. aeruginosa strain 453 [2]; growth medium (CAA),0.64 pmol
same,muralytic activity (clearing zones) on autoclaved P. aeruginosa,[3],degraded Pseudomonas PG
same,MIC,E. coli ATCC 25922,>256 µg/mL
same,MIC,E. cloacae NR-50391,>256 µg/mL
same,MIC,A. baumaneii ATCC 17978,>256 µg/mL
same,MIC,K. pneumoniae NR-41916,>256 µg/mL
same,"endotoxin release, fold less than meropenem and tobramycin",P. aeruginosa strain 453 [4],~100 fold
same,reduction in bacterial viability,P. aeruginosa strain 453 [5]; 2 h,~2 log10
same,reduction in bacterial viability,P. aeruginosa strain 453 [5]; 4 h,~3 log10
same,reduction in bacterial viability,P. aeruginosa strain 453 [5]; 12 h,~4 log10
same,lysocin concentration that sterilized the bacterial culture,"P. aeruginosa strain 453 [5]; 24 h, CAA medium and 50% HuS",10 μg/ml and 132 nM
same,concentration at which bactericidal,P. aeruginosa strain 453 [5]; after 4 h,0.1 µg/mL
same,bacterial morphology by TEM,P. aeruginosa strain 453 [6]; 30 min post-treatment,transitioned from rod-shaped to a more spherical morphology
same,bacterial morphology by TEM,P. aeruginosa strain 453 [6]; 60 min post-treatment,"intact, nonviable cells either lacking or with noticeably reduced cytoplasmic content"
same,protected from death (survival over 10 days),P. aeruginosa strain 453 [7]; 2.5 mg/kg IP,73%
same,protected from death (survival over 10 days),P. aeruginosa strain 453 [7]; 5 mg/kg IP,80%
same,protected from death (survival over 10 days),P. aeruginosa strain 453 [7]; 12.5 mg/kg IP,93%
same,protected from death (survival over 10 days),P. aeruginosa strain 453 [7]; 25 mg/kg IP,100%
same,Pseudomonas in organs of surviving mice,P. aeruginosa strain 453 [7]; day 10,did not contain detectable Pseudomonas
same,MIC,E. faecium EFSK-2,>256 µg/mL
same,MIC,S. pyogenes D471,>256 µg/mL
same,MIC,B. cereus RSVF1,>256 µg/mL
same,MIC,S. aureus NR-45946,>256 µg/mL
same,decrease in pseudomonal viability,P. aeruginosa strain 453 [8]; 3 h,3.1 log10
same,viable bacterial cells relative to limit of detection (10 CFU/ml),P. aeruginosa strain 453 [8]; duration of the experiment (6 h),incapable of lowering the number of viable bacterial cells to the limit of detection
